Laboratory results taken from patent publication US12544373B2, “Treatment of cancer, inflammatory diseases and autoimmune diseases” (Usher III Initiative, Inc., priority 2020, dated 2026).
pIC50: −log10 of the molar value. Where two headings read alike, the source gives them in different places.

Experiments:
[1] = tested on: 10 human tumor cell lines; assay: CellTiter-Blue 2D monolayer assay (Example 1), whole panel; type: cell-based
Procedure: Compound 85 was assessed in 10 human tumor cell lines (see Table 3) for anti-cancer activity in vitro using a CellTiter-Blue® based 2D monolayer assay.
CellTiter-Blue® Cell Viability Assay: Tumor cells were grown at 37° C. in a humidified atmosphere with 5% CO2 in RPMI medium, supplemented with 10% (v/v) fetal calf serum and 50 μg/ml gentamicin (140 μl/well). Cultures were incubated at 37° C. and 5% CO2 in a humidified atmosphere. After 24 hours, 10 μl of Compound 85 was added, and left on the cells for another 72 hours (incubation period). Compound 85 was tested at 5 concentrations (0.003 μM, 0.03 μM, 0.3 μM, 3 μM, and 30 μM) and serially diluted in DMSO, mixed with cell culture medium, and added to the assay plates by using a Tecan Freedom EVO 200 robotic platform. The DMSO concentration was kept constant at 0.3% yip across the assay plate. Every 96 well plate included six DMSO-treated control wells and Compound 85-treated wells in duplicate at 5 concentrations. Viability of cells was quantified using the CellTiter-Blue® cell viability assay (Promega G8081). After incubation of cells, the CellTiter-Blue® reagent was brought to ambient temperature. Next, 20 μl of CellTiter-Blue® reagent were added to each well. After incubation tier up to 4 hours, fluorescence (FU) was measured using the EnSpire® multimode plate reader (Perkin Elmer) ([…]).
Data Evaluation: Sigmoidal concentration-response curves were fitted to the data points (test-versus-control; T/C values) obtained for each tumor model using 4 parameter non-linear curve fit (Charles River DRS Datawarehouse Software). Drug effects are expressed in terms of the percentage of the fluorescence signal, obtained by comparison of the mean signal in the treated wells with the mean signal of the untreated controls (T/C-value [%]) (Table 4). IC50 and IC70 values were reported as relative and absolute IC50 and IC70 values (Table 5). The absolute IC50 and IC70 values reflect the concentration of Compound 85 that achieves T/C=50% and T/C=30%, respectively. The relative IC50 value is the concentration of Compound 85 that gives a response half way between the top and bottom plateau of the sigmoidal concentration-response curve (inflection point of the curve).

MEXF 1341 = assay: CellTiter-Blue Cell Viability Assay (Example 2), melanoma; type: cell-based, human; details: for T/C %: 72 h
Text: (§1) The CellTiter-Blue® Cell Viability Assay was used to assess the viability of cells from various cancer cell lines, in the presence or absence of Compound 85 (at different concentrations). This assay provides a homogeneous, fluorometric method for estimating the number of viable cells present in multi-well plates. Viable cells retain the ability to reduce resazurin to resorufin, which is highly fluorescent. […] The fluorescence produced is proportional to the number of viable cells. There is a linear relationship between cell number and fluorescence.
(§2) Cancer cells (see Table 6) were harvested from exponential phase cultures, counted and plated in 96 well flat-bottom microtiter plates, at a cell density 6,000-20,000 cells/well, depending on the cell line's growth rate. The culture medium was supplemented with 10% (v/v) foetal calf serum and 50 μg/mL gentamicin (140 μL/well). Cultures were incubated at 37° C. and 5% CO2 in a humidified atmosphere.
(§3) Compound 85 was serially diluted in DMSO, and five Compound 85 concentrations in half-log increments were used: 0.03 μM, 0.09 μM, 0.30 μM, 1.0 μM, and 3.0 μM. After 24 h, 10 μL of Compound 85 (dissolved in DMSO) or control (DMSO) medium were added, in duplicates, and left on the cells for another 72 h. Compound 85 solutions were added to the assay plates using a Tecan Freedom EVO 200 robotic platform. The DMSO concentration was kept constant at 0.3% v/v across the assay plate.
(§4) After incubation of up to 72 hours, fluorescence (FU) was measured using the EnSpire® multimode plate reader (Perkin Elmer) (excitation λ=570 nm, emission λ=600 nm).
(§5) Cancer cell lines used: Compound 85's anti-cancer effect was tested in 20 human cancer-cell lines representing nine cancer types (Table 6).
(§6) The percentage of viable cells in the presence of Compound 85 (Test condition, T), at different concentrations, are presented in Table 7 and expressed as a percentage of the number of viable cells in the presence of DMSO without Compound 85 (Control condition, C).
(§7) The relative IC50 is determined as the Compound 85 concentration giving a response halfway between the maximum cell viability signal (i.e., a 100% cell viability, no Compound 85 response) and the minimal viability signal (i.e. maximum cell viability inhibition achieved by Compound 85), in a sigmoidal concentration-effect curve.
(§8) The absolute IC50 is determined as the concentration that is associated with a T/C ratio of 50%.

MEXF 1737 = assay: as above; type: cell-based, human; details: for T/C %: 72 h
Text: as §1, §2, §3, §4, §5, §6, §7, §8

PAXF HUP-T3 = assay: CellTiter-Blue Cell Viability Assay (Example 2), pancreatic; type: cell-based, human; details: for T/C %: 72 h
Text: as §1, §2, §3, §4, §5, §6, §7, §8

PAXF 1657 = assay: as above; type: cell-based, human; details: for T/C %: 72 h
Text: as §1, §2, §3, §4, §5, §6, §7, §8

CNXF 498 = assay: CellTiter-Blue Cell Viability Assay (Example 2), glioblastoma; type: cell-based, human; details: for T/C %: 72 h
Text: as §1, §2, §3, §4, §5, §6, §7, §8

CNXF U-87 MG = assay: as above; type: cell-based, human; details: for T/C %: 72 h
Text: as §1, §2, §3, §4, §5, §6, §7, §8

[2] = geometric mean over 10 cell lines

For CC(C)(O)Cn1nc(-c2ccccc2)c2c(Cl)c(-c3ccccc3)nnc21 [Compound 85], the “inhibition of the tumor cell growth” value ([1]; all cell lines of Table 3) was “concentration-dependent inhibition”, the “Geometric mean Abs. IC70” value [1, 2] was 1.258 µM and the “Geometric mean Rel. IC70” value [1, 2] was 1.226 µM. For the same compound, the pIC50 ([1]; geometric mean over 10 cell lines, read-out: Geometric mean Abs. IC50) was 6.02, the pIC50 ([1]; geometric mean over 10 cell lines, read-out: Geometric mean Rel. IC50) was 6.03 and the “Absolute IC70” value (MEXF 1341) was 0.445 µM. The “Relative IC70” value (MEXF 1341) was 0.451 µM, the T/C % (MEXF 1341; 0.03 μM) was 97% and the T/C % (MEXF 1341; 0.095 μM) was 91%. The T/C % (MEXF 1341; 0.3 μM) was 82%, the T/C % (MEXF 1341; 0.95 μM) was 0% and the T/C % (MEXF 1341; 3.0 μM) was 0%. The pIC50 (MEXF 1341; read-out: Absolute IC50) was 6.41, the pIC50 (MEXF 1341; read-out: Relative IC50) was 6.40 and the “Absolute IC70” value (MEXF 1737) was 0.925 µM. For the same compound, the “Relative IC70” value (MEXF 1737) was 0.864 µM, the T/C % (MEXF 1737; 0.03 μM) was 99% and the T/C % (MEXF 1737; 0.095 μM) was 97%. For the same compound, the T/C % (MEXF 1737; 0.3 μM) was 101%, the T/C % (MEXF 1737; 0.95 μM) was 27% and the T/C % (MEXF 1737; 3.0 μM) was 16%. The pIC50 (MEXF 1737; read-out: Absolute IC50) was 6.08, the pIC50 (MEXF 1737; read-out: Relative IC50) was 6.10 and the “Absolute IC70” value (PAXF HUP-T3) was 0.723 µM. The “Relative IC70” value (PAXF HUP-T3) was 0.602 µM, the T/C % (PAXF HUP-T3; 0.03 μM) was 95% and the T/C % (PAXF HUP-T3; 0.095 μM) was 102%. It also gave a T/C % (PAXF HUP-T3; 0.3 μM) of 88%, a T/C % (PAXF HUP-T3; 0.95 μM) of 21% and a T/C % (PAXF HUP-T3; 3.0 μM) of 16%. The pIC50 (PAXF HUP-T3; read-out: Absolute IC50) was 6.27, the pIC50 (PAXF HUP-T3; read-out: Relative IC50) was 6.31 and the “Absolute IC70” value (PAXF 1657) was 1.166 µM. The “Relative IC70” value (PAXF 1657) was 1.169 µM, the T/C % (PAXF 1657; 0.03 μM) was 97% and the T/C % (PAXF 1657; 0.095 μM) was 94%. It also gave a T/C % (PAXF 1657; 0.3 μM) of 97%, a T/C % (PAXF 1657; 0.95 μM) of 66% and a T/C % (PAXF 1657; 3.0 μM) of 1%. The pIC50 (PAXF 1657; read-out: Absolute IC50) was 5.98, the pIC50 (PAXF 1657; read-out: Relative IC50) was 5.98 and the “Absolute IC70” value (CNXF 498) was 1.901 µM. For the same compound, the “Relative IC70” value (CNXF 498) was 1.868 µM, the T/C % (CNXF 498; 0.03 μM) was 106% and the T/C % (CNXF 498; 0.095 μM) was 107%. For the same compound, the T/C % (CNXF 498; 0.3 μM) was 113%, the T/C % (CNXF 498; 0.95 μM) was 2% and the T/C % (CNXF 498; 3.0 μM) was 1%. For the same compound, the pIC50 (CNXF 498; read-out: Absolute IC50) was 5.76, the pIC50 (CNXF 498; read-out: Relative IC50) was 5.77 and the “Absolute IC70” value (CNXF U-87 MG) was 0.9938 µM. For the same compound, the “Relative IC70” value (CNXF U-87 MG) was 0.9869 µM, the T/C % (CNXF U-87 MG; 0.03 μM) was 99% and the T/C % (CNXF U-87 MG; 0.095 μM) was 102%. It also gave a T/C % (CNXF U-87 MG; 0.3 μM) of 102%, a T/C % (CNXF U-87 MG; 0.95 μM) of 1% and a T/C % (CNXF U-87 MG; 3.0 μM) of 4%. For the same compound, the pIC50 (CNXF U-87 MG; read-out: Absolute IC50) was 6.03 and the pIC50 (CNXF U-87 MG; read-out: Relative IC50) was 6.03.
